Values quoted from earlier work, collected in PMC10828988, “Tuning the Softness of the Pendant Arms and the Polyazamacrocyclic Backbone to Chelate the ^203Pb/^212Pb Theranostic Pair” (Inorganic Chemistry, 2024).

Parameters: method as in doi:10.1016/0010-8545(91)80023-7
Conditions: T = 25 °C, nonfunctionalized macrocycles; cited from earlier work

For `C1CNCCNCCNCCN1` [cyclen, 1,4,7,10-tetrazacyclododecane], the “logK Pb^2+-macrocycle” value is given as 15.9.
